Like-named read-outs stand apart in the source and are kept apart here.

In this assay the target is T1, Tre6Pase activity of intact trehalose synthase (Saccharomyces cerevisiae, UniProt P31688).
T1 construct: Intact trehalose synthase was purified from commercial baker's yeast; made in house; host or cells: commercial baker's yeast (native enzyme purified, not recombinant)
T1 sequence (P31688 1-896): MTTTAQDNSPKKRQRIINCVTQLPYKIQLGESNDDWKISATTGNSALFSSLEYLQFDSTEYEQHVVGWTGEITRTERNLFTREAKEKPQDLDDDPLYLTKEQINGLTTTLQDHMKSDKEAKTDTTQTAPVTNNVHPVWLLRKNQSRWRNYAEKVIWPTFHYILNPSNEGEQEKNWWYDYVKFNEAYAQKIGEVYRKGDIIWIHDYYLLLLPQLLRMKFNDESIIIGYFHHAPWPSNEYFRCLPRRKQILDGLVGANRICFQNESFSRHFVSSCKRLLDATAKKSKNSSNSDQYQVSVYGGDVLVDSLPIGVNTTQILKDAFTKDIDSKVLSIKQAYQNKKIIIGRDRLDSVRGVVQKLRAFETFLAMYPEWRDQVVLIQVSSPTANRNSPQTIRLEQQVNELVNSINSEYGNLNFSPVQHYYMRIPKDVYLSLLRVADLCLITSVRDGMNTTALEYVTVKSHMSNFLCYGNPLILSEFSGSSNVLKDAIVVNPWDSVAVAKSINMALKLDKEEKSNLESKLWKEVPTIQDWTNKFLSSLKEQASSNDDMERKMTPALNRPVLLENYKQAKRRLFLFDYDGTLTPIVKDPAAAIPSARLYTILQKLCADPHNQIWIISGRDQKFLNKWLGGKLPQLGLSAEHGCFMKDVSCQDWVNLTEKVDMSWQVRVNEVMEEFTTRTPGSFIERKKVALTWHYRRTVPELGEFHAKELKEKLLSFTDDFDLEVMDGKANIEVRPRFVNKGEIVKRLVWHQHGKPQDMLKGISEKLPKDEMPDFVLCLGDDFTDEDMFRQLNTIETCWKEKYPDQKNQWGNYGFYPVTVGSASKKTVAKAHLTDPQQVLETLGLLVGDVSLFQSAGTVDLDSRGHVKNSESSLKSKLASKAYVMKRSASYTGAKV
T1 sequence (Q00764 1-495 partner): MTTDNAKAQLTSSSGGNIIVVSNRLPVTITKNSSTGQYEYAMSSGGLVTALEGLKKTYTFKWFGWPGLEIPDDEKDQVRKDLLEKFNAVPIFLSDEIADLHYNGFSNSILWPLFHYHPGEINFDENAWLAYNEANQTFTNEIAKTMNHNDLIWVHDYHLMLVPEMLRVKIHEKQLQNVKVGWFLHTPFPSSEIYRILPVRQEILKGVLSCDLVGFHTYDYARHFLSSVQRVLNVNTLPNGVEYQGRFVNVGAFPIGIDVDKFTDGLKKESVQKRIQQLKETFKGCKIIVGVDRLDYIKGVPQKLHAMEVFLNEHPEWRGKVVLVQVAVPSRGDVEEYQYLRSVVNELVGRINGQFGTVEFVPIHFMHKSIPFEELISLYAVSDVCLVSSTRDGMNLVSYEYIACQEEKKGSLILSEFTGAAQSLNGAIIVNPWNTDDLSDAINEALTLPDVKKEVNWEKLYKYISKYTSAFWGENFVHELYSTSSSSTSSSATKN
T1 sequence (P38427 1-1098 partner): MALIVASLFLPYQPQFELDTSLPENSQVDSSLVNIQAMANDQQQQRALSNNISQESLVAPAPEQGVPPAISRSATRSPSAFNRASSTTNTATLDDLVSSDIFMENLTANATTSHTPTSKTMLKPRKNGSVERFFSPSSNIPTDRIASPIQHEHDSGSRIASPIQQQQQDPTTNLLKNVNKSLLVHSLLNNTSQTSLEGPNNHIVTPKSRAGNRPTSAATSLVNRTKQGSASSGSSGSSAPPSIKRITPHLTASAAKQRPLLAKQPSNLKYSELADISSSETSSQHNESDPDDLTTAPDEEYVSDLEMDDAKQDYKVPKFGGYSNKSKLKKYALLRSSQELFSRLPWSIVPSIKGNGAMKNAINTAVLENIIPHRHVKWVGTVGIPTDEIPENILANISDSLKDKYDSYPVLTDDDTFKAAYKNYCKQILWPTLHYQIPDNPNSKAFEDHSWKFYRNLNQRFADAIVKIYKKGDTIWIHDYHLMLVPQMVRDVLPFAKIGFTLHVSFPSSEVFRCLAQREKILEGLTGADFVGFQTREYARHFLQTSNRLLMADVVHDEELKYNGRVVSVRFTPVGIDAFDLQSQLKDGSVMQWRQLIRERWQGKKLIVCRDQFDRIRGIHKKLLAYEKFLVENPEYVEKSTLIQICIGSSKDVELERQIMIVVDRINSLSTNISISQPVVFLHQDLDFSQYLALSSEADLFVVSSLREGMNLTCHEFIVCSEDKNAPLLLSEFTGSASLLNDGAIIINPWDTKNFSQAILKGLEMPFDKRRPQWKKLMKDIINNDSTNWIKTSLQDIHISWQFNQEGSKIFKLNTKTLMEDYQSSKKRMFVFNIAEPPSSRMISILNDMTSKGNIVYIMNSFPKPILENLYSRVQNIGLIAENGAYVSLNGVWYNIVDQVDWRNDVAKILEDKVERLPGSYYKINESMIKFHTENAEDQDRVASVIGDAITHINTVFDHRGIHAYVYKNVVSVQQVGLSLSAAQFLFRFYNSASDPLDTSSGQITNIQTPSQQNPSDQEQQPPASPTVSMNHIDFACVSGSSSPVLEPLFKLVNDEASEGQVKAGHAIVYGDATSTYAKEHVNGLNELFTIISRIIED
In words: Tre6Pase assay of intact trehalose synthase. Format: biochemical, baker's yeast. On the procedure:
With microbial materials, Tre6Pase and Tre6P synthase standard assays and other kinetic measurements were made as described by Londesborough & Vuorio [(1991) loc. cit.] except that the standard Tre6P synthase assay mixture contained 5 mM F6P unless stated otherwise.
In one experiment intact trehalose synthase (0.28 Tre6P synthase units, ≈9.4 μg) was incubated with or without 0.5 μg of trypsin at 30° C. in 250 μl of 13 mM HEPES pH 7.0 containing 1 mM MgCl2, 0.5 mM EDTA, 0.5 mM dithiothreitol, 0.2 M NaCl and 0.5 mM benzamidine. Its Tre6P synthase activity was determined at intervals using standard assay mixtures (containing 5 mM F6P) containing no or 4 mM K phosphate pH 6.8, and samples were prepared for SDS-PAGE analysis immediately before and 48 min after addition of the trypsin.
Intact trehalose synthase was prepared as in Example 1. Kinetic assays were done at 30° C. as described in General Methods and Materials.

For the molecule `O=P(O)(O)O` [phosphate, K phosphate], under “initial rates, intact enzyme, read-out: half maximal activation of Tre6Pase by phosphate”, the EC50 is 600 µM.

`O=C(CO)[C@@H](O)[C@H](O)[C@H](O)COP(=O)(O)O` [Transformant F6P, Fructose 6-phosphate]: under “in the absence of phosphate, intact enzyme”, the “effect on Tre6Pase activity” value is recorded as “did not affect”. For the same molecule, the inhibition at 5000 µM reads like this: (read-out: inhibition of Tre6Pase activity, 5 mM F6P, saturating phosphate concentrations, intact enzyme) 10 to 15%; (read-out: inhibition of Tre6Pase activity, 5 mM F6P, sub-optimal phosphate concentrations, intact enzyme) 20 to 30%.
